According to US20180125835A1, “Dosage and Use of an A2A Antagonist” (H. Lundbeck A/S, priority 2014, published 2018):
Like-named read-outs stand apart in the source and are kept apart here.

Key:
A2A receptor [1] = target: T1, A2A receptor (Rattus norvegicus, UniProt P30543); assay: Reversal of CGS21680-induced hypolocomotion; type: in vivo
Method: Doses of 0.01, 0.03, 0.06, 0.1 mg/kg were tested in a dosage form of 0.5 w/v % methyl cellulose 400 (viscosity: 400 cP) in distilled water. Drug was administered at a volume of 5 ml/kg, oral.
Sixty (60) male Long Evans rats, 3 months age, were allocated into 6 groups of N=10 rats per group.
The activity test, monitoring the rat's spontaneous activity was measured in the automated
Med Associates activity test chamber for 20 minutes. The tracking arena was of dimension 17′W×17″L×12″H, sensor bars were secured 1″ above the floor to track distance travelled, and a second set of sensor bars were placed 6″ above the floor to measure vertical movement and rearing activity. The parameters set on the tracking software were: resolution—50 ms, box size—4 beams, resting delay—500 ms, and ambulatory trigger—2.

A2A receptor [2] = target: T2, A2A receptor (Homo sapiens, UniProt P29274); assay: PET study in humans of A2A receptor occupancy with [11C]-SCH442416; type: in vivo; settings: for EC50: plasma concentration at PET scan, read-out: estimated EC50 of A2A receptor occupancy (converted)
Method: There were 3 cohorts in the study, each including 2 subjects.
In the Screening period (Days −28 to −4) safety screening procedures were performed and subject eligibility was confirmed following a magnetic resonance imaging (MRI) scan (Days −21 to −2). Eligible subjects were admitted to the clinic on Day −1. […] The subjects received the PET tracer [11C]-SCH442416 immediately prior to each PET scan.
The PET tracer, [11C]-SCH442416 was provided as a radiopharmaceutical in an 11 mL sterile and pyrogen free type 1 glass vial as a solution for intravenous administration. The [11C]-SCH442416 solution consisted of up to 10% ethanol and 90% saline and was administered as an intravenous bolus in approximately […] of the saline/ethanol solution over approximately 20 seconds. Each subject received a maximum of 500 MBq of [11C]-SCH442416 for each PET scan.
PET data were analysed using the simplified reference tissue method (SRTM). […] The SRTM implementation employed directly estimated the binding potential relative to the non-displaceable component (BPND), which can be thought of as a measure of specific binding.
Receptor occupancy (RO) in a region of interest (ROI) can then be calculated directly as: RO=100×(1−BPND(post-dose)/BPND(baseline))
Binding potential and estimated RO were listed and presented graphically versus CPET.

A1 receptor [3] = target: T3, A1 receptor (Callithrix jacchus, UniProt U3EV00); assay: Adenosine receptor binding affinity, marmoset A1
T3 sequence (U3EV00 1-326): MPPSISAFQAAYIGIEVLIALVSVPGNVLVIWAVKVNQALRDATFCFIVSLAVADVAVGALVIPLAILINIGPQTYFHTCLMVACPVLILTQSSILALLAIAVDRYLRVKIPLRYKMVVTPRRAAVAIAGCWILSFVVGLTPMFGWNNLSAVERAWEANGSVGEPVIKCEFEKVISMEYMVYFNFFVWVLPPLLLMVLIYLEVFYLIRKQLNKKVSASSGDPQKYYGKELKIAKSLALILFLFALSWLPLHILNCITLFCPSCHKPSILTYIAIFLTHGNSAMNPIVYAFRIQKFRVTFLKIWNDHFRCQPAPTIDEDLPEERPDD

A1 receptor [4] = target: T4, A1 receptor (Mus musculus, UniProt Q60612); assay: Adenosine receptor binding affinity, mouse A1
T4 sequence (Q60612 1-326): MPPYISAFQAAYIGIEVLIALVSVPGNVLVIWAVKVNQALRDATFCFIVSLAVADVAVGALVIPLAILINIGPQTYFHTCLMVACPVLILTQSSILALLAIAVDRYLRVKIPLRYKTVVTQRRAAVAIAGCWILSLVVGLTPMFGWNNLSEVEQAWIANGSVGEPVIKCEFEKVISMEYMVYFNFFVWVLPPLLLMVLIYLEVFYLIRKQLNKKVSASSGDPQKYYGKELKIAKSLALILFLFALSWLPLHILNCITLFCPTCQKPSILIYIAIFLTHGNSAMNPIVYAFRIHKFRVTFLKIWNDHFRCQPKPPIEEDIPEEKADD

A2A receptor [5] = target: T1, A2A receptor; assay: Adenosine receptor binding affinity, rat A2A
A2A receptor [6] = target: T2, A2A receptor; assay: biochemical
Long Evans rats = assay: 5-choice serial reaction time task (5-CSRTT); type: in vivo, rat
From the text: (A) Testing under standard conditions, i.e. equivalent to final conditions to which the animals were trained, i.e. stimulus duration (SD) 0.75 seconds (s), inter-trial interval (ITI) 5 s, 100 trials. The purpose of this condition being to measure drug effect on performance under standard conditions. (B) Testing under conditions of extended (long) ITI, i.e. low event rate, SD 0.3 s, ITI 5, 7.5, 10 s, 120 trials. The purpose of this condition being to measure drug effect on performance under lower event rate requiring the animal to delay its responding. (C) Testing under conditions of short ITI, i.e. high event rate, SD 0.3 s, ITI 3, 4, 5 s, 120 trials. The purpose of this condition to measure drug effect on performance under high event rate requiring the animal to rapidly process sensory information. (D) Testing under conditions of extended trials, i.e. SD 0.3 s, ITI 5 s, 250 trials. The purpose of this condition to measure drug effect on performance under extended trials, testing sustained attention or vigilance.
Sixteen (16) experimentally naïve, male Long Evans rats were trained to asymptotic performance in the 5-CSRTT over a period of approximately 2-3 months. The rats were trained to final stimulus duration (SD) of 0.75 s, 5 s inter-trial interval (ITI), 5 s limited hold (LH), 100 trials per session. Target performance levels under these conditions was in the range of >80% accuracy and <20% omissions.
Once the group of animals were trained, multiple drug studies according to various experimental tasks (see table 2 below) was tested in the same cohort of rats. […] The study design was made up of 4 experiments, with each experiment 2-3 weeks in duration and a 1 week intervening period between each experiment.

T2 sequence (P29274 whole entry): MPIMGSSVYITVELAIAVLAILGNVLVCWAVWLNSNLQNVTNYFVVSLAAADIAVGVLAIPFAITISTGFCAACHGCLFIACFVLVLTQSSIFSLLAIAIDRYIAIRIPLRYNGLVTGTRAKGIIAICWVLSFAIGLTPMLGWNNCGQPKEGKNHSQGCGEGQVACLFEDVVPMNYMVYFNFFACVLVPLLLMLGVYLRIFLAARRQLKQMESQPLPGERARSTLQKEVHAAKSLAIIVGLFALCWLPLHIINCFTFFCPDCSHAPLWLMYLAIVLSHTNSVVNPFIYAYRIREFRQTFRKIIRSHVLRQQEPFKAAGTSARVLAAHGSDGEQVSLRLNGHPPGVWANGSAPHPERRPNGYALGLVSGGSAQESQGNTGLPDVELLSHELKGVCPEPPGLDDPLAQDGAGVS
T1 sequence (P30543 whole entry): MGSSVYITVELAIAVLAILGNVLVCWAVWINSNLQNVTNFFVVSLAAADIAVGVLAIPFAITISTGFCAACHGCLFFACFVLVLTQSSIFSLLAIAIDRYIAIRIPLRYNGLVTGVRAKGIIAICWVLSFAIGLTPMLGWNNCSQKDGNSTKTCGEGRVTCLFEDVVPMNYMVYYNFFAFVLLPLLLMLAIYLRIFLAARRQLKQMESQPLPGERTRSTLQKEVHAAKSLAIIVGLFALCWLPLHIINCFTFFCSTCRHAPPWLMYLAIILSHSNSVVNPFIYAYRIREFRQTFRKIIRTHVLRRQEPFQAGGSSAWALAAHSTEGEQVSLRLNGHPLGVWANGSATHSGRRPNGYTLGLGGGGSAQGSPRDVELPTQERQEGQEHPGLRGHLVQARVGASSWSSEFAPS

Cc1ccc(C(=O)Nc2nc(-c3ccco3)c(C(=O)C3CCOCC3)s2)cn1 [Compound 504]
reversal of CGS-induced hypolocomotion (A2A receptor [1]; 0.1 mg/kg oral): completely reversed
reversal of CGS-hypolocomotion (distance travelled, rearing, ambulatory episodes) (A2A receptor [1]; 0.06 and 0.1 mg/kg doses): significantly reversed
ED50 (A2A receptor [1]; rat, po, read-out: ED50 for antagonism of the CGS-hypolocomotion): ~0.06 mg/kg
estimated Emax of A2A receptor occupancy (A2A receptor [2]; globus pallidus, Emax model vs CPET): 101%
EC50 (A2A receptor [2]; globus pallidus): 173 nM
EC50 (A2A receptor [2]; putamen): 78 nM
dosage sufficient to reach an occupancy of 80% (A2A receptor [2]; single oral dose, healthy young men): ≤ 3 mg
Ki (A1 receptor [3]): 305 ± 6.6 nM
Ki (A1 receptor [4]): 31.1 ± 1.09 nM
Ki (A2A receptor [5]): 0.1 ± 0.0072 nM
Ki (A2A receptor [6]): 0.118 ± 0.0023 nM
correct trials completed by all rats in Bin 5 (Long Evans rats; extended 250 trials, 0.1 mg/kg): at least 13
decline in % correct and number of correct responses, increase in omissions over Bins 4 and 5 (Long Evans rats; extended 250 trials, 0.03-0.1 mg/kg oral, particularly 0.06-0.1 mg/kg): protected against the decline
premature responses (Long Evans rats; long ITI, 0.06 mg/kg oral): increased
accuracy under long ITI (Long Evans rats; long ITI, 0.06 mg/kg oral, P=0.09): non-significant trend of compound 504 to reduce accuracy
performance in terms of choice accuracy (Long Evans rats; short ITI, 0.03-0.06 mg/kg oral, particularly at 3 s ITI): improved performance
% correct, # incorrect responses, omissions, premature responses (Long Evans rats; short ITI, averaged over the multiple ITI): improving performance on each measure
other measures (% correct, # correct/incorrect responses, omissions, magazine latency) (Long Evans rats; standard conditions): unaffected
speed of responding (correct latency) (Long Evans rats; standard conditions, doses 0.03-0.1 mg/kg oral): significantly increased speed of responding
premature responding (Long Evans rats; standard conditions, significant only at 0.1 mg/kg): increased premature responding
